Measurements reported in patent publication US7374898B2, “Peptide inhibitors against seprase” (The Research Foundation of State University of New York, priority 2004, dated 2008).
pKi: −log10 of the molar value. Entries after “also recorded” stand apart in the source; their conditions may differ. Read-outs that look alike come from different tables or passages of the source. Where a SMILES comes first, the peptide text is derived from it. Bridges are numbered along the chain shown (N, C = ends).

Tests used:
LOX cells [1] = test: Overall collagen degradation by cells, Bodipy FL C5 labelled type I collagen microtiter plate; assay type: cell-based, human; settings: 16 hours, 37° C., FIG. 3A
Experimental: The assay involves coating 96-well microtiter plates with Bodipy FL C5 labelled type I collagen films. It allows direct measurement of collagen degradation by cells, as the release of fluorescent intensity is in proportion to the degree of collagen degradation. To prepare collagen films, collagen solution mixed with DMEM (1:4 v/v) was coated as a thin layer in each well of a 96-well microtiter plate, and incubated for 1 h at 37° C. to allow gel formation. Labeling of collagen films involved borate buffer, pH 8.3, containing 3 mg of BODIPY FL C5 (Molecular Probes) at 25° C. To determine collagen degradation by cells, LOX cells (10^4/well) were seeded in a 96-well microtiter plate pre-coated with Bodipy FL C5 labeled type I collagen, and incubated in the presence of different concentrations of inhibitors at 37° C. for 16 hours. The increase in fluorescence at 485 nm (excitation)/538 nm (emission) is proportional to the ability of cells to degrade fluorescently labeled collagen films. Change in fluorescent intensity was monitored with a fluorescence microtiter plate reader (Molecular Devices, Sunnyvale, Calif.).

seprase [2] = target: T1, seprase (Homo sapiens, UniProt Q12884); test: Prolyl dipeptidase activity of seprase, Gly-Pro-pNA substrate; settings: for inhibition of seprase: FIG. 1; for inhibition of the prolyl dipeptidase activity of seprase: Gly-Pro-pNA 2 mM, different concentrations of peptides
T1 sequence (Q12884 1-760): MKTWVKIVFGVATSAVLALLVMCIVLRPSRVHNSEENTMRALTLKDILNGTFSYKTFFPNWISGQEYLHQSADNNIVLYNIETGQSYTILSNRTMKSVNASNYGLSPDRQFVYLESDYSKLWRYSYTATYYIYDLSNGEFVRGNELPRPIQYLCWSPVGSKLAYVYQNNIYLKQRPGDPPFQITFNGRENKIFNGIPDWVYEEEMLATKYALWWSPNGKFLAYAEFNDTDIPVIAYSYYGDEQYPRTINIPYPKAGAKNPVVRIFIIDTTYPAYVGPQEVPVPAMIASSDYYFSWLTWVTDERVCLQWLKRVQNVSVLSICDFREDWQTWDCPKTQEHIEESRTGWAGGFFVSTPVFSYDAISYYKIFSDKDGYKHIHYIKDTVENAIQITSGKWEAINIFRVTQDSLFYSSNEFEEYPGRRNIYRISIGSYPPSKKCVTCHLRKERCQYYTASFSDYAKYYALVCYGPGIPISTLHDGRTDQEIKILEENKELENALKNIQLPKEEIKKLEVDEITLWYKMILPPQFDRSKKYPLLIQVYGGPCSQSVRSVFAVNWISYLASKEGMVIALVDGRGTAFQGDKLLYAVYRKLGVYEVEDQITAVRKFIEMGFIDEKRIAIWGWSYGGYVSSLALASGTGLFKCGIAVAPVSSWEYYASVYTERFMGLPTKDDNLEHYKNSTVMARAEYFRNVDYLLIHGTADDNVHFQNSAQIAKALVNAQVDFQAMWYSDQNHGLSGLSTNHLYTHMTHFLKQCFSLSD

DPP4 = DPP4 (Homo sapiens, UniProt P27487); settings: reported values; read-out: KiDPP4 of reported DPP4 competitive inhibitors; cited from earlier work
[3] = tested on: human ovarian tumor cells
seprase [4] = target: T1, seprase; test: Gelatinolytic activity of seprase, soluble fluorescent DQ-gelatin assay; assay type: biochemical; design: Native seprase, which was isolated from LOX cells grown on type I collagen films according to previously described procedures; endogenous in cells; host or cells: LOX human amelanotic melanoma cells; WGA-enriched fraction, immuno-captured with mAb D8; settings: DQ-gelatin 25 μg/ml, 37° C., 16 hours, FIG. 1B
[5] = tested on: Human ovarian cancer cells isolated from mouse ascites; test: In vitro extracellular matrix degradation and ingestion assay on TRITC-type I collagen films; assay type: cell-based; settings: at 1 mM, 16 to 24 hours
Experimental: It consists of seeding tumor cells on fluorescently labeled type I collagen films and determining the ability of tumor cells to degrade and ingest the fluorescently labeled extracellular matrix. Two inhibitors, H-Ile-Pro-NHO-PNB (DPP4-specific) and the cyclic peptide [sequence] [SEQ ID NO:3] (seprase-specific) were used. Human ovarian cancer cells isolated from mouse ascites as described in Example 7 were seeded on TRITC-type I collagen films.

LOX cells [6] = test: Cell viability, apoptosis and cell death assays on collagen films; assay type: cell-based; design: dose or concentration left out as unconfirmed
Experimental: In parallel to the assay assessing the overall collagen degradation by LOX cells described above (FIG. 3A), LOX cells grown on collagen films were determined for their physiological responses to peptide or other protease inhibitors in terms of cell viability (FIG. 3B), apoptosis (FIG. 3C) and cell death (FIG. 3D). Cell viability, apoptosis and cell death assays were performed using Molecular Probes (Eugene, Oreg.) Live/Dead Viability/Cytotoxicity kit and Vybrant Apoptosis Assay Kit #4 and followed the manufacturer's instruction. LOX cells (10^4/well) were cultured on a type I collagen coated 96-well microtiter plate in the presence of inhibitors at 37° C. overnight. After washing gently with PBS, dyes for the cell viability assay (Calcein Am, 2 mM, only stained live cells) and for the apoptosis assay (YO-PRO [a fluorescent nuclear dye], 0.25 mM, stained apoptotic cells; ethidium homodimer-1, 4 mM, stained dead cells) were added and incubated at 25° C. for 45 min. The fluorescence intensity was read at the wavelength of 485 nm/538 nm or 544 nm/612 nm. In the LIVE/DEAD Viability/Cytotoxicity Assay, high fluorescent intensity indicates high number of viable cells, whereas in the Vybrant Apoptosis Assay, high fluorescent intensity units indicate high number of apoptotic or dead cells.

matrix metalloproteinase = settings: supplier information; read-out: Ki of matrix metalloproteinase inhibitor; cited from earlier work
LOX cells [7] = test: Peptide binding to seprase-expressing LOX cells (ELISA and immunofluorescence); assay type: cell-based, human
Experimental: (§1) It was also determined if synthetic peptides targeting seprase could bind seprase-expressing LOX cells but not seprase-negative tumor cells including the human melanoma cell line SKMEL-28.

SKMEL-28 cells = test: Peptide binding to seprase-negative SKMEL-28 cells (ELISA and immunofluorescence); assay type: cell-based, human
Experimental: as §1

GFP-LOX cells = test: Melanoma growth and metastasis to lung and liver in nude mice co-inoculated with GFP-LOX cells; assay type: in vivo, NCR Nude mice; settings: CDMWERVSRC 300 μM or control peptide 500 μM, 28 days
Experimental: Number of GFP-melanoma cells or micrometastases in lung (J) and liver (K) tissues freshly excised from animals was counted per 3×10^5 μm^2 under an epifluorescence microscope.
We next determined whether [sequence] […] GFP-tagged LOX cells, 2×10^5 cells/mouse, were co-inoculated subcutaneously with peptides into flanks of NCR Nude mice, and followed by daily injections of peptide solutions into sites 2 mm adjacent to tumors. […] GFP-tagged LOX cells, 2×10^5 cells suspended in 100 ml of serum-free DMEM, that were pre-incubated with [sequence] [SEQ ID NO: 3] (300 μM) or control peptides (500 μM) were injected subcutaneously into flanks of NCR Nude mice (female; Taconic Co., Germantown, N.Y.). In addition, [sequence] [SEQ ID NO: 3] (300 μM) and control peptides (500 μM) were daily injected into the subcutaneous tissue 2 mm adjacent to tumor sites. Total of 3 mice were used for each experimental or control group. Tumors were measured twice a week. After 28 days, mice were sacrificed by anesthetic overdose. Tissues including primary tumor, lung and liver were removed and examined for GFP tagged melanoma cells and micrometastases by epifluorescence microscopy, followed by enumeration and photography. Melanoma cells in lung and liver were calculated by counting number of GFP-melanoma cells or micrometastases in these tissues freshly excised from animals in a 3×10 μm^2 area in 10 different regions.

DPP4, sequence (P27487 whole entry, species assumed): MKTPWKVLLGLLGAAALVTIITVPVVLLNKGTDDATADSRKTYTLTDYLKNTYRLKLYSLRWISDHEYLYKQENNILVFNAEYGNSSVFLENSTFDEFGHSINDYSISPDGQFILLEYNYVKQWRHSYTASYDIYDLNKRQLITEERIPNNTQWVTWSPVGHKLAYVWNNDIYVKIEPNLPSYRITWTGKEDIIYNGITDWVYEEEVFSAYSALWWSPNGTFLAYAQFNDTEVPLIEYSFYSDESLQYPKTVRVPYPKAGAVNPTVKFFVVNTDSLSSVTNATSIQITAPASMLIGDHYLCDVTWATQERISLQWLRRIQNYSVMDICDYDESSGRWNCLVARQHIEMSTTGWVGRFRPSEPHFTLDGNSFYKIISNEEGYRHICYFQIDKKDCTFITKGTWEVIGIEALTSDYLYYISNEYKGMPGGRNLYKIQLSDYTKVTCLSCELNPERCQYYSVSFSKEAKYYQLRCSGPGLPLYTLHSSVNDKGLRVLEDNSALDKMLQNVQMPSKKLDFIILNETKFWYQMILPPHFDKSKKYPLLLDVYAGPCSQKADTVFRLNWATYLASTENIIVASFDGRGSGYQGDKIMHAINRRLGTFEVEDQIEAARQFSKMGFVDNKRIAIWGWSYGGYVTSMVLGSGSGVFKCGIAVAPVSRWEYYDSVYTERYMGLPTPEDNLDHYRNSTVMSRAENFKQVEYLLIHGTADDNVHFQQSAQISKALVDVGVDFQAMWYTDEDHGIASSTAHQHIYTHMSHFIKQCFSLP

## REMSDWRV
LOX cells [1]
  inhibition of overall collagen degradation by LOX cells (words): did not
Seprase [2]; % of the effect of DMWERVSR, FIG. 1A
  inhibitory effect relative to DMWERVSR: less than 10%

## DMWERVSR
Seprase [2]
  inhibition of seprase: potent inhibitors
Seprase [2]; FIG. 1A
  activity in inhibiting seprase prolyl dipeptidase compared with other inhibitors: more active than DLDYLSKF
  inhibition of the prolyl dipeptidase activity of seprase: inhibit

## N[C@@H](CCC(=O)NCC(=O)NCC(=O)NCC(=O)NCC(=O)NCC(=O)O)C(=O)N1CCSC1 [H-Glu(Gly5)-Thia]
DPP4
  pKi: 7.10
Seprase [2]; FIG. 1A
  inhibition of the prolyl dipeptidase activity of seprase: inhibit

## CC[C@H](C)[C@H](N)C(=O)N1CCC[C@H]1C(=O)NOC(=O)c1ccc([N+](=O)[O-])cc1 [H-Ile-Pro-NHO-PNB]
LOX cells [1]
  inhibition of overall collagen degradation by LOX cells (words): inhibited the overall collagen degradation by LOX cells in a dose dependent manner
LOX cells [1]; listed as H-Ile-Pro-NHO-pNB
  inhibition of overall collagen degradation by LOX cells (words): weak
[3]; i.p. human ovarian tumor cells, 8 weeks, equimolecular amounts
  inhibition of growth in ascites and on peritoneum: 50%
Seprase [4]
  inhibition of the gelatinolytic activity of seprase: did not inhibit
[5]
  block of degradation and ingestion of collagen film: 50%

## CSCC[C@@H]1NC(=O)[C@H](CC(=O)O)NC(=O)[C@@H](N)CSSC[C@@H](C(=O)O)NC(=O)[C@H](CCCNC(=N)N)NC(=O)[C@H](CO)NC(=O)[C@H](C(C)C)NC(=O)[C@H](CCCNC(=N)N)NC(=O)[C@H](CCC(=O)O)NC(=O)[C@H](Cc2c[nH]c3ccccc23)NC1=O (H-CDMWERVSRC-OH; disulfide 1-10 (inferred); N-terminus and C-terminus assumed)
[3]; mouse, in vivo, ip
  inhibition of growth in ascites and on peritoneum: more than 90%
Seprase [2]
  increase of catalytic Km value: 5 times
Seprase [2]; read-out: inhibition of seprase prolyl dipeptidase activity
  inhibition at 100 µM: > 60%
LOX cells [6]
  toxicity to cells: not toxic or lethal to cells

## DLDYLSKF
Seprase [2]
  inhibition of seprase: potent inhibitors
Seprase [2]; FIG. 1A
  inhibition of the prolyl dipeptidase activity of seprase: inhibit

## GGYR
Seprase [2]; FIG. 1A
  inhibition of the prolyl dipeptidase activity of seprase: no inhibition

## CC(C)(C)[C@H](NC(=O)[C@H](CCCc1ccc(Cl)cc1)CC(=O)NO)C(N)=O [CT-1746]
LOX cells [1]
  inhibition of overall collagen degradation by LOX cells (words): inhibited the overall collagen degradation by LOX cells in a dose dependent manner; also recorded: strongest inhibitory effect
Matrix metalloproteinase
  pKi: 6.91

## GGAGDMWERVSRG
LOX cells [7]
  binding to LOX cells: strong binding
SKMEL-28 cells
  binding to SKMEL-28 cells: did not bind

## CCC(C)C(N)C(=O)N1CCSC1 (stereo not shown) [H-Ile-Thia]
Seprase [4]
  inhibition of the gelatinolytic activity of seprase: did not inhibit
Seprase [2]; FIG. 1A
  inhibition of the prolyl dipeptidase activity of seprase: inhibit
Seprase [2]; read-out: Ki, prolyl dipeptidase activity of seprase, PBS pH 7.4, 37° C., 8.0 mM Gly-Pro-pNA, FIG. 1D
  pKi: 7.00

## GRGTWN
LOX cells [1]
  inhibition of overall collagen degradation by LOX cells (words): did not
Seprase [2]; FIG. 1A
  inhibition of the prolyl dipeptidase activity of seprase: no inhibition

## YISGR [control peptide]
GFP-LOX cells
  formation of liver micrometastases: did not
  formation of lung micrometastases: did not
GFP-LOX cells; co-inoculated s.c. and daily injections
  formation of LOX-derived human melanoma: did not
Seprase [4]
  inhibition of the gelatinolytic activity of seprase: do not

## RKISASEFDRPLR [control peptide]
LOX cells [7]
  binding to LOX cells: not
SKMEL-28 cells
  binding to SKMEL-28 cells: did not bind
